# Measurements as given in patent US20140242551A1, “Oral Care System and Method” (priority 2013, published 2014).
# Assays:
# [1] = test system: Listeria, E. Coli, Pseudomonas, Salmonella, Staphylococcus, Streptococcus and others; settings: within 30-60 seconds; cited from earlier work
# [2] = test system: Aggregatibacter actinomycetemcomitans; assay: standard Minimum Inhibitory Concentration test; assay type: cell-based; settings: 18 to 24 hour test; CD at 37 parts per million, active for only three minutes
# Procedure: (§1) FIG. 8 is an exemplary table of comparative laboratory test results illustrating Minimum Inhibitor Concentration of CD at a concentration of 37 parts per million versus Chlorhexidine (CHX) in effectiveness to destroy bacteria and yeast.
# (§2) FIG. 8 is an exemplary table listing the comparative results of an 18 to 24 hour standard Minimum Inhibitory Concentration test of a chlorhexidine oral rinse solutions' effectiveness in inhibiting growth of bacteria typically found in the oral cavity, and during dental procedures. More specifically, under controlled test conditions of the University of Iowa College of Dentistry, May 15, 2012, a CD rinse solution was tested against and compared to the chlorhexidine (CHX) as shown.
# (§3) It should be noted that even when CHX outperformed CD, or performed as well as CD but at lower concentrations, it did so after continuously acting upon the bacteria for a continuous period of 18 to 24 hours; CD on the other hand while the CD tested had been active for only three minutes, yet remarkably continued to inhibit growth for the subsequent testing time period.
# [3] = in-vitro test of oral rinses' ability to destroy or reduce microbial VSC toxins; settings: 30 second exposure
# Source text: FIG. 7 is an exemplary table of comparative laboratory text results, and a corresponding graphical representation of the average reduction in […] of each compound listed in the table.
# FIG. 7 is an exemplary table of comparative laboratory text results, and a corresponding graphical representation of the average reduction in Volatile Sulfur Compounds of each compound listed in the table. More specifically, the table data and corresponding chart presents the results of controlled laboratory tests conducted on Aug. 11, 2012. The in-vitro tests simulated actual patient-use conditions anticipated in root canal and periodontal procedures. The measurements compare oral rinses based on their ability to destroy or reduce microbial VSC toxins after a 30 second exposure. The tests were completed for a variety of toxins including those produced by Porphyromonas gingivalis, Prevotella intermedia, Tannerella forsythia, Treponema socranskii, and Streptococcus mitis, all of which are routinely present in the oral cavity during periodontal and endodontic procedures.
# [4] = test system: bacteria typically found in the oral cavity; assay: standard Minimum Inhibitory Concentration test, other listed bacteria; assay type: cell-based; settings: 18 to 24 hour MIC test
# Procedure: as §1, §2, §3
# [5] = in humans, including rare cases of anaphylactic shock; cited from earlier work
Compound,log reduction [1] [log],reduction [1] [%],"Minimum Inhibitory Concentration, as dilution of rinse inhibiting growth [2]",microbial toxins destroyed (reduction in Volatile Sulfur Compounds) [3] [%],growth inhibition compared with CHX (result in words) [4],incidence of hypersensitivity reactions [5] [%],toxin reduction (result in words) [3]
"[O][Cl+][O-] [CD, chlorine dioxide]",5,99.999,1/32,100,equally well or slightly less well than CHX,,
"[H]/N=C(\N/C(=N/[H])NCCCCCCNC(=N)NC(=N)Nc1ccc(Cl)cc1)Nc1ccc(Cl)cc1 [Chlorhexidine, reference compound]",,,⅛,,,2,statistically nonsignificant drops
